From patent publication US11384060B2, “Amide compounds and use thereof” (ALPHALA CO., LTD., priority 2017, dated 2022)
Where two headings read alike, the source gives them in different places.

How the values were obtained:
glucagon receptor (GCGR) = biological target: T1, glucagon receptor (GCGR) (Homo sapiens, UniProt P47871); assay: I125-glucagon binding assay (competition, GCGR membrane fractions)
T1 construct: expressed in transfected cells; host or cells: CHO-K1 cells overexpressing GCGR (membrane fractions)
Protocol: I^125-Glucagon Binding Assay
The binding affinity of each compound was evaluated by a competition assay with I^125-glucagon. GCGR membrane fractions were obtained from GCGR overexpressed CHO-K1 cells as a stock of 1 mg/ml concentration. To evaluate the IC50 of compounds binding to GCGR, GCGR membrane fractions were treated with compounds with a serial dilution. The membrane fractions were diluted to 7.5 microgram per well in 70 microliter assay buffer contained 50 mM Tris pH 7.4 and 0.5% (w/v) bovine serum albumin and added into 96 wells plate. The membrane fractions were then mixed with 10 microliter diluted compounds. After 5 minutes pre-incubation, 20 microliter I^125 labeled glucagon (Perkin Elmer) was added into each well at the final concentration of 0.0625 nM. The assay mixtures were incubated at 25° C. for 30 minutes and then transferred onto the Millipore MultiScreen GF/B Plate coated with 0.5% (w/v) Polyethyleneimine. The filter plate was washed with wash buffer contained 50 mM Tris pH 7.4 for 2 times, 300 microliter each time. The residual isotope was detected by Hidex CHAMELEON V micro-beta counter and the IC50 value of each compound binding to GCGR was calculated with non-linear regression.

[1] = biological target: T2, glucagon receptor (GCGR) overexpressed CHO-K1 cells or human primary hepatocytes (Homo sapiens, UniProt P47871); assay: Glucagon cAMP inhibition assay (Cisbio cAMP Dynamic 2 HTRF); type: cell-based
T2 construct: expressed in transfected cells; host or cells: GCGR overexpressed CHO-K1 cells or human primary hepatocytes (endogenous receptor)
Protocol: Glucagon cAMP Inhibition Assay
Downstream secondary messenger cAMP induced by glucagon was detected by Cisbio cAMP Dynamic 2 kit. Testing compounds were each prepared as a dimethyl sulfoxide (DMSO) solution at the concentration of 10 mM. To evaluate the potency of compounds in inhibiting the cAMP production, glucagon receptor (GCGR) overexpressed CHO-K1 cells or human primary hepatocytes were treated with compounds with a serial dilution. The cells were re-suspended in Hank's Balanced Salt solution (HBSS) contained 0.1% (w/v) bovine serum albumin and 800 nM 3-isobutyl-1-methylxanthine (IBMX) and seeded into low volume, 384 wells white plate. The diluted compounds were then added into the plate for 30 minutes pre-incubation where the final DMSO concentration was 1%. The cells were stimulated with glucagon at the concentration equaled to EC50 (an indicium of the concentration of a drug that gives half-maximal response) for 30 minutes at room temperature. After incubation, lysis buffer contain cAMP antibody and fluorescence acceptor were added into each well for additional 60 minutes incubation. Results were recorded by Molecular Devices SpectraMax Paradigm with the HTRF Detection Cartridges and the IC50 value of each compound in inhibiting the cAMP production was calculated with non-linear regression based on the amount of cAMP production.

[2] = competition with I125-glucagon 0.0625 nM, membrane fractions of GCGR overexpressed CHO-K1 cells
[3] = inhibition of glucagon (EC50 concentration) induced cAMP production

T1 sequence (P47871 26-477): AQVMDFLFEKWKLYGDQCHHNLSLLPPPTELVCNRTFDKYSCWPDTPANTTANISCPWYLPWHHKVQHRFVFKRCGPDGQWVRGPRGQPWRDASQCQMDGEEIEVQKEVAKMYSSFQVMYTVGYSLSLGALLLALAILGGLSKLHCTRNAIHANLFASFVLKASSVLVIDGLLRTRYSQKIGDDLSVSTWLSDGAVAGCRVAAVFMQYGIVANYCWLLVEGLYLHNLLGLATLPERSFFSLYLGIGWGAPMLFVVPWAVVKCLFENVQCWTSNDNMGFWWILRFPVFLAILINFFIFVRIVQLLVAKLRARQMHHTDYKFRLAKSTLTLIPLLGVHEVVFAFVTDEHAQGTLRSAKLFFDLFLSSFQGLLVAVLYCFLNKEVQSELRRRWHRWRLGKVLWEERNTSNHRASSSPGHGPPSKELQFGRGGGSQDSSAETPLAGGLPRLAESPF
T2 sequence (P47871 26-477): as above

Structure (SMILES)	IC50 (glucagon receptor (GCGR)) [nM]	IC50 cAMP [1] [µM]	IC50 (glucagon receptor (GCGR); [2]) [nM]	IC50 cAMP [1, 3] [µM]	further results
CCCC[C@@H](COc1nnc(-c2ccc(Cl)cc2Cl)o1)Nc1ccc(C(=O)NCCC(=O)O)cc1 [Compound 22-6, (S)-3-(4-((1-((5-(2,4-dichlorophenyl)-1,3,4-oxadiazol-2-yl)oxy)hexan-2-yl)amino)benzamido)propanoic Acid]	> 30000	>30			
CC[C@H](C)[C@@H](COc1ccc(-c2cc3ccccc3o2)cn1)Nc1ccc(C(=O)NCCC(=O)O)cc1 [Compound 15-15, 3-(4-(((2S,3S)-1-((5-(benzofuran-2-yl)pyridin-2-yl)oxy)-3-methylpentan-2-yl)amino)benzamido)propanoic Acid]	207	0.03273			
CC(C)C[C@H](Nc1ccc(C(=O)NCCC(=O)O)cc1)C(=O)Nc1ccc(-c2ccc(C(F)(F)F)cc2)cc1 [Compound 23-4, (S)-3-(4-((4-methyl-1-oxo-1-((4′-(trifluoromethyl)-[1,1′-biphenyl]-4-yl)amino)pentan-2-yl)amino)benzamido)propanoic Acid]	269	3.2			
CCCC[C@@H](COc1ccc(-c2ccc(C(F)(F)F)cc2Cl)nc1)Nc1ccc(C(=O)NCCC(=O)O)cc1 [Compound 10-11, (S)-3-(4-((1-((6-(2-chloro-4-(trifluoromethyl)phenyl)pyridin-3-yl)oxy)hexan-2-yl)amino)benzamido)propanoic Acid]			270	0.5374	
Cc1c(-c2nnc([C@H](Cc3ccc(-c4ccc(C(F)(F)F)cc4)cc3)Nc3ccc(C(=O)NCCS(=O)(=O)O)cc3)o2)oc2ccccc12 [Compound 20-7, (S)-2-(4-((1-(5-(3-methylbenzofuran-2-yl)-1,3,4-oxadiazol-2-yl)-2-(4′-(trifluoromethyl)-[1,1′-biphenyl]-4-yl)ethyl)amino)benzamido)ethane-1-sulfonic Acid]	> 30000	>30			
CC(C)COC[C@H](Cc1ccc(-c2cc3ccccc3o2)cc1)Nc1ccc(C(=O)NCCC(=O)O)cc1 [Compound 19-32, (S)-3-(4-((1-(4-(benzofuran-2-yl)phenyl)-3-isobutoxypropan-2-yl)amino)benzamido)propanoic Acid]	483	1.017			
CC[C@H](C)[C@@H](COc1ccc(-c2ccc(OC(F)(F)F)cc2)cc1)Nc1ccc(C(=O)NCCC(=O)O)cc1 [Compound 1-6, 3-(4-(((2S,3S)-3-methyl-1-((4′-(trifluoromethoxy)-[1,1′-biphenyl]-4-yl)oxy)pentan-2-yl)amino)benzamido)propanoic Acid]			228	1.078	
CCOC(=O)CCNC(=O)c1ccc(N[C@H](Cc2ccc(-c3ccc(C(F)(F)F)cc3)cc2)C(=O)Nc2ccc(OC(F)(F)F)cc2)cc1 [Compound 24-27, Ethyl (R)-3-(4-((1-oxo-1-((4-(trifluoromethoxy)phenyl)amino)-3-(4′-(trifluoromethyl)-[1,1′-biphenyl]-4-yl)propan-2-yl)amino)benzamido)propanoate]	1280	0.3185			
CCC(C)[C@@H](COc1cnc(-c2ccc(C(F)(F)F)cc2Cl)nc1)Nc1ccc(C(=O)NCCC(=O)O)cc1 (stereo partly drawn) [Compound 12-8, 3-(4-(((2S)-1-((2-(2-chloro-4-(trifluoromethyl)phenyl)pyrimidin-5-yl)oxy)-3-methylpentan-2-yl)amino)benzamido)propanoic Acid]			331	2.719	
CC[C@H](C)[C@@H](COc1ccc(-c2nnc(-c3ccccc3)o2)cc1)Nc1ccc(C(=O)NCCC(=O)O)cc1 [Compound 1-46, 3-(4-(((2S,3S)-3-methyl-1-(4-(5-phenyl-1,3,4-oxadiazol-2-yl)phenoxy)pentan-2-yl)amino)benzamido)propanoic Acid]			601	5.441	
CC[C@H](C)[C@@H](COc1ccc(-c2cc3ccccc3o2)c(Cl)c1)Nc1ccc(C(=O)NCc2nnn[nH]2)cc1 [Compound 3-1, N-((1H-tetrazol-5-yl)methyl)-4-(((2S,3S)-1-(4-(benzofuran-2-yl)-3-chlorophenoxy)-3-methylpentan-2-yl)amino)benzamide]			217	1.822	
CC(C)[C@@H](COc1cc(F)c(-c2cc3ccccc3o2)c(F)c1)Nc1ccc(C(=O)NCCC(=O)O)cc1 [Compound 7-1, (S)-3-(4-((1-(4-(benzofuran-2-yl)-3,5-difluorophenoxy)-3-methylbutan-2-yl)amino)benzamido)propanoic Acid]			93	0.495	
CC(C)[C@@H](COc1ccc(-c2ccc(C(F)(F)F)cn2)cc1)Nc1ccc(C(=O)NCCC(=O)O)cc1 [Compound 1-24, (S)-3-(4-((3-methyl-1-(4-(5-(trifluoromethyl)pyridin-2-yl)phenoxy)butan-2-yl)amino)benzamido)propanoic Acid]			134	0.1875	
CC(C)C[C@@H](COc1ccc(-c2ccc(F)cc2F)nn1)Nc1ccc(C(=O)NCCC(=O)O)cc1 [Compound 17-1, (S)-3-(4-((1-((6-(2,4-difluorophenyl)pyridazin-3-yl)oxy)-4-methylpentan-2-yl)amino)benzamido)propanoic Acid]			2260	4.239	
CCC(C)[C@@H](COc1nnc(-c2ccc(C(C)(C)C)cc2)o1)Nc1ccc(C(=O)NCCC(=O)O)cc1 (stereo partly drawn) [Compound 22-9, 3-(4-(((2S)-1-((5-(4-(tert-butyl)phenyl)-1,3,4-oxadiazol-2-yl)oxy)-3-methylpentan-2-yl)amino)benzamido)propanoic Acid]	> 30000				
CCOC(=O)CCNC(=O)c1ccc(N[C@@H](Cc2cccc3ccccc23)C(=O)NC(C)C)cc1 [Compound 24-11, Ethyl (S)-3-(4-((1-(isopropylamino)-3-(naphthalen-1-yl)-1-oxopropan-2-yl)amino)benzamido)propanoate]					IC50 cAMP ([1]; uM): >10 µM
CCC(C)[C@@H](COc1nnc(-c2ccc(OC(F)(F)F)cc2)o1)Nc1ccc(C(=O)NCCC(=O)O)cc1 (stereo partly drawn) [Compound 22-8, 3-(4-(((2S)-3-methyl-1-((5-(4-(trifluoromethoxy)phenyl)-1,3,4-oxadiazol-2-yl)oxy)pentan-2-yl)amino)benzamido)propanoic Acid]	> 30000				
Cc1cc(C)c(-c2ccc(C[C@H](Nc3ccc(C(=O)NCCS(=O)(=O)O)cc3)C(=O)Nc3ccc(C(C)(C)C)cc3)cc2)c(C)c1 [Compound 23-26, (S)-2-(4-((1-((4-(tert-butyl)phenyl)amino)-1-oxo-3-(2′,4′,6′-trimethyl-[1,1′-biphenyl]-4-yl)propan-2-yl)amino)benzamido)ethane-1-sulfonic Acid]		39.3			
CC[C@H](C)[C@@H](COc1ccc(-c2nnc(C(C)(C)C)o2)c(OC)c1)Nc1ccc(C(=O)NCCC(=O)O)cc1 [Compound 13-13, 3-(4-(((2S,3S)-1-(4-(5-(tert-butyl)-1,3,4-oxadiazol-2-yl)-3-methoxyphenoxy)-3-methylpentan-2-yl)amino)benzamido)propanoic Acid]			883		
CC(C)NC(=O)[C@H](Cc1cccc2ccccc12)Nc1ccc(C(=O)NCCC(=O)O)cc1 [Compound 24-12, (S)-3-(4-((1-(isopropylamino)-3-(naphthalen-1-yl)-1-oxopropan-2-yl)amino)benzamido)propanoic Acid]					IC50 cAMP ([1]; uM): >10 µM
CC(C)NC(=O)[C@H](Cc1ccc2ccccc2c1)Nc1ccc(C(=O)NCCC(=O)O)cc1 [Compound 24-14, (S)-3-(4-((1-(isopropylamino)-3-(naphthalen-2-yl)-1-oxopropan-2-yl)amino)benzamido)propanoic Acid]					IC50 cAMP ([1]; uM): >10 µM
CCOC(=O)CCNC(=O)c1ccc(N[C@@H](Cc2ccc3ccccc3c2)C(=O)NC(C)C)cc1 [Compound 24-13, Ethyl (S)-3-(4-((1-(isopropylamino)-3-(naphthalen-2-yl)-1-oxopropan-2-yl)amino)benzamido)propanoate]					IC50 cAMP ([1]; uM): >10 µM
CCOC(=O)CCNC(=O)c1ccc(N[C@@H](Cc2c[nH]c3ccccc23)C(=O)Nc2ccc(-c3cc4ccccc4o3)cc2)cc1 [Compound 23-27, Ethyl (S)-3-(4-((1-((4-(benzofuran-2-yl)phenyl)amino)-3-(1H-indol-3-yl)-1-oxopropan-2-yl)amino)benzamido)propanoate]		34.6			
CC[C@H](C)[C@@H](COc1ccc(-c2ccc(F)cc2F)cc1)Nc1ccc(C(=O)NCCC(=O)O)cc1 [Compound 1-26]				0.213	
